# Literature values as cited in patent US20200246376A1, “HYDROGEN BASED COMPOSITIONS” (HYDROGEN4HEALTH PTY LTD, priority 2019, published 2020).
smiles,measurement,setting,value
"[HH] [molecular hydrogen, hydrogen]",saturation of molecular hydrogen in water,hydrogen water prepared by electrolysis,around 1.6 ppm
same,typical saturation of hydrogen gas in water,standard temperature and pressure (STP),1.6 mg/L
